{"source": "patent US5506359A", "about": "“Cocaine analogues and their use as cocaine drug therapies and therapeutic and imaging agents for neurodegenerative disorders” (priority 1993, dated 1996)", "key": {"[1]": {"biological_target": "dopamine transporter, human caudate nucleus and putamen (Homo sapiens, UniProt Q01959)", "sequence (Q01959 whole entry)": "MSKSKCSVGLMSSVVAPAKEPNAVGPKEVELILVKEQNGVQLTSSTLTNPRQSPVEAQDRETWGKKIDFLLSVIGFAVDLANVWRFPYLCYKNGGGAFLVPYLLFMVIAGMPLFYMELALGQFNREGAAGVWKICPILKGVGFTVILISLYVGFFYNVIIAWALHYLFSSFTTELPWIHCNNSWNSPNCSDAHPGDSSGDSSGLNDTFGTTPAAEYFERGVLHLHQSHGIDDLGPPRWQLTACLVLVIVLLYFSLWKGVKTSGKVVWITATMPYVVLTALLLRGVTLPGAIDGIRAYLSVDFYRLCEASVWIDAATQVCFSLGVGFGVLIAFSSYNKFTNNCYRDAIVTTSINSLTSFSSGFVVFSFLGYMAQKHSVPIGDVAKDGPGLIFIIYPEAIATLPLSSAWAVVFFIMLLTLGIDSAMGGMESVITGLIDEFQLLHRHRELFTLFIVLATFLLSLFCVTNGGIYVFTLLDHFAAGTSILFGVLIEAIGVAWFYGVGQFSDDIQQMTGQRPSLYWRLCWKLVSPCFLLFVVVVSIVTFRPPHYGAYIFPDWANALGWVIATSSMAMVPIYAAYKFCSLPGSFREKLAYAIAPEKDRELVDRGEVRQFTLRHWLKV", "experiment": "[^3 H]CFT binding to homogenates of human caudate nucleus and putamen", "settings": "human caudate nucleus and putamen homogenates", "excerpt": "In order to determine whether [^3 H]CFT labels sites associated with the dopamine transporter, the binding of [^3 H]CFT to homogenates of human caudate nucleus and putamen, was characterized."}, "[2]": {"tested_on": "[^3 H]CFT binding sites in monkey caudate-putamen", "settings": "cited from earlier work"}, "[3]": {"tested_on": "squirrel monkeys (i.v. drug self-administration)", "experiment": "Drug self-administration under second order schedule", "format": "in vivo, squirrel monkeys (Saimiri sciureus)", "excerpt": "To determine whether CFT also mimicked cocaine's behavioral effects in vivo (specifically the reinforcing and interoceptive effects), squirrel monkeys were trained to respond under a second order schedule of i.v. drug self-administration (see detailed description below). […] The results were consistent with the view that the reinforcing effects of cocaine are mediated by cocaine recognition sites associated with the dopamine uptake system.\nFor drug discrimination and self administration studies, experiments are conducted with rodents or squirrel monkeys (Saimiri sciureus) seated in standard primate chairs enclosed in ventilated, sound-attenuating chambers. The chairs are equipped with response levers, stimulus lights, food pellet dispensers, and pumps for injecting drugs intravenously. […] Response rates and temporal patterns of responding are monitored continuously during daily experimental sessions. Effects of drugs are analyzed in individual subjects by comparing performances during drug sessions with those during control sessions. […]\nInitially, responding is maintained using an injection dose of 100 μg/kg cocaine, which usually is optimal for developing i.v. self-administration.After consistent rates and patterns of responding are maintained by cocaine, the effects of a full range of doses of cocaine and of selected candidate drugs is determined. […]"}, "[4]": {"tested_on": "squirrel monkeys trained to discriminate cocaine", "experiment": "Drug discrimination (cocaine versus saline)", "format": "in vivo, squirrel monkeys (Saimiri sciureus)", "settings": "training dose cocaine 0.3-0.56 mg/kg", "procedure": "The subjective (interoceptive) effects of cocaine were studied in monkeys through the use of a drug discrimination procedure. […] Squirrel monkeys were trained to discriminate cocaine (0.3-0.56 mg/kg) from saline using a two-level choice procedure.\nFor drug discrimination and self administration studies, experiments are conducted with rodents or squirrel monkeys (Saimiri sciureus) seated in standard primate chairs enclosed in ventilated, sound-attenuating chambers. The chairs are equipped with response levers, stimulus lights, food pellet dispensers, and pumps for injecting drugs intravenously. Four animals are studied in each experiment, with each subject receiving all drug treatments whenever possible. Response rates and temporal patterns of responding are monitored continuously during daily experimental sessions. Effects of drugs are analyzed in individual subjects by comparing performances during drug sessions with those during control sessions. […]\nDrug discrimination experiments are conducted using cumulative-dose procedures similar to those described in Madras et al. (Soc. Neurosci. Abst. 16:14, 1990; Pharmacol. Biochem. Behav. 35:949-953, 1990) and Spealman et al. (J. Pharmacol. Exp. Ther. 258:945-953, 1991). […] Good agreement has been found between the effects of drugs determined by cumulative-dose procedures and by single-dose procedures when appropriate parameters are selected. […]"}}, "data": [{"smiles": "COC(=O)[C@H]1[C@@H](c2ccc(F)cc2)C[C@@H]2CC[C@H]1N2C", "note": "[4'a (CFT), 2β-carbomethoxy-3β-(4-fluorophenyl)tropane]", "values": [{"measurement": "rank order of potency for inhibiting [^3 H]CFT binding", "setting": "[1]", "value": "Lu 19-005>CFT, mazindol, GBR 12909>(-)-cocaine>bupropion>(+)-cocaine"}, {"measurement": "extent of displacement of [^3 H]CFT", "setting": "[2]", "value": "full displacement of [^3 H]CFT"}, {"measurement": "number of binding components", "setting": "[2]; competition curves", "value": "at least two binding components"}, {"measurement": "steepness of competition curve", "setting": "[2]; displacement of [^3 H]CFT", "value": "0.61-0.89"}, {"measurement": "potency in maintaining responding relative to cocaine", "setting": "[3]", "value": "approximately six"}, {"measurement": "generalization to cocaine cue", "setting": "[4]", "value": "fully generalized to the cocaine cue"}]}]}
